Reference: ChEMBL document CHEMBL1201862, “PubChem BioAssay data set” (2004)
Calls of active or inactive are those of the source.

Columns and labels:
[1] = target: T1, E3 ubiquitin-protein ligase XIAP (Homo sapiens, UniProt P98170); test: Counter Screen using XIAP-Bir3 for Chemical Antagonists of Bir1/2 domains of IAP-family anti-apoptotic proteins. [Related pubchem assays (depositor defined):AID1018, AID1449, AID1514, AID1638, AID1749, AID1750, AID488957, AID488963]
[2] = target: T1, E3 ubiquitin-protein ligase XIAP; test: XIAP antagonists, biochemical, IAP family, fluorescence polarization (AID 1018); assay type: functional
[3] = target: G-protein coupled receptor 55 (Homo sapiens, UniProt Q9Y2T6); test: GPR55 antagonists blocking LPI-driven arrestin recruitment, primary screen, imaging, U2OS, beta-arrestin-GFP, LPI agonist (AID 2013); assay type: functional;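 further: antagonist potency measured as reduced agonist-driven arrestin aggregation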
G-protein coupled receptor 55, sequence (Q9Y2T6 whole entry): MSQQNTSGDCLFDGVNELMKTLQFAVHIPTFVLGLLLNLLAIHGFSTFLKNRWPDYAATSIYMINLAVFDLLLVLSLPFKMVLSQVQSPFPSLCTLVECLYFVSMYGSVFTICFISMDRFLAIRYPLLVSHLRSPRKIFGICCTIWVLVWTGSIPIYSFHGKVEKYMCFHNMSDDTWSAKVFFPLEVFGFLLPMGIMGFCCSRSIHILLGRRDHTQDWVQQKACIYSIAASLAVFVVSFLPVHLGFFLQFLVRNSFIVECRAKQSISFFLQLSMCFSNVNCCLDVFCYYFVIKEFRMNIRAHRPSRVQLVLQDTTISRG

[4] = inhibitors of intracellular T. cruzi replication, confirmation, NIH3T3 host cells, beta-gal luminescence (AID 2044); assay type: functional, cell-based;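 further: intracellular parasites grown in NIH/3T3 mouse fibroblasts as host cells; luminescent beta-galactosidase reporter signal from transgenic T. cruzi replicating inside host cells; inhibitors lower the luminescence signal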
[5] = cytotoxicity toward NIH3T3 fibroblasts, dose response, counter-screen, cell-based, ATP luminescence, mouse fibroblasts (AID 2010); assay type: functional;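 further: cells exposed to compound for about 90 hours before reading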
[6] = inhibitors of HIV Env-driven cell fusion, dose response, cherry-pick (AID 652057); assay type: functional, cell-based
[7] = ZM109 Env clade C HIV-1 fusion inhibitors, dose response, HeLa effector, CEM target cells, luciferase, cherry-pick (AID 652058); assay type: functional, cell-based
[8] = off-target signal loss in HeLa-CEM21 co-culture – HeLa F-luc CTL cells, cherry-picked, counter-screen for HIV-1 Env fusion inhibitor project, dose response (AID 652040); assay type: functional, cell-based;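 further: potency for signal decrease marking cytotoxic or nonspecific inhibition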
[9] = inhibitors of clade B AD8 Env fusion, dose response, cell-based, cherry-pick (AID 652062); assay type: functional;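 further: luciferase signal from cell-cell fusion driven by HIV-1 clade B AD8 Env; potency is for inhibitors of fusion seen as a drop in luminescence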
HEK293 [10] = test: cells; settings: Homo sapiens
HEK293 [11] = test: cells; settings: Homo sapiens; remark: listed apart in the source
[12] = target: T2, Mitochondrial peptide methionine sulfoxide reductase (Bos taurus, UniProt P54149); assay type: functional;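 further: absorbance read-out, biochemical high-throughput dose-response screen for MsrA inhibitors, confirmatory; recombinant bovine MsrA coupled to E. coli TrxB with NADPH and selenocystamine; potency is for inhibitors of MsrA activity on DMSO substrate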
T2 sequence (P54149 whole entry): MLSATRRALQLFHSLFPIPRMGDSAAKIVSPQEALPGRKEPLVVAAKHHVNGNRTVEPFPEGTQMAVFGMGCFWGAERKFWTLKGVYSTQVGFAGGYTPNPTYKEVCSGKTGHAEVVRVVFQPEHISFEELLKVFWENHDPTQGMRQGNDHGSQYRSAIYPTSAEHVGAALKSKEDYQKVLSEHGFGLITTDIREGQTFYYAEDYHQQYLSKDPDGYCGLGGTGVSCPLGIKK

CHO-K1 = test: (§1) Counterscreen for antagonists of the orexin 1 receptor (OX1R; HCRTR1): Homogeneous time resolved fluorescence (HTRF)-based cell-based dose response assay to identify antagonists of the parental CHO-K1 cell line. [Related pubchem assays (depositor defined):AID434989, AID435008, AID463079, AID485270, AID492963, AID492964, AID492965, AID493232, AID504699, AID504701]; assay type: functional; settings: Cricetulus griseus
[13] = as §1, with “Fluorescence-based” for “Homogeneous time resolved fluorescence (HTRF)-based”, “cell-based high throughput” for “cell-based”, “CHO” for “CHO-K1”; assay type: functional
[14] = target: T3, Orexin/Hypocretin receptor type 1 (Homo sapiens, UniProt O43613); test: Homogeneous Time Resolved Fluorescence (HTRF)-based cell-based high throughput dose response assay for antagonists of the orexin 1 receptor (OX1R; HCRTR1). [Related pubchem assays (depositor defined):AID434989, AID435008, AID463079, AID485270, AID492963, AID492964, AID492965, AID493232, AID504717, AID504718]; assay type: functional
T3 sequence (O43613 whole entry): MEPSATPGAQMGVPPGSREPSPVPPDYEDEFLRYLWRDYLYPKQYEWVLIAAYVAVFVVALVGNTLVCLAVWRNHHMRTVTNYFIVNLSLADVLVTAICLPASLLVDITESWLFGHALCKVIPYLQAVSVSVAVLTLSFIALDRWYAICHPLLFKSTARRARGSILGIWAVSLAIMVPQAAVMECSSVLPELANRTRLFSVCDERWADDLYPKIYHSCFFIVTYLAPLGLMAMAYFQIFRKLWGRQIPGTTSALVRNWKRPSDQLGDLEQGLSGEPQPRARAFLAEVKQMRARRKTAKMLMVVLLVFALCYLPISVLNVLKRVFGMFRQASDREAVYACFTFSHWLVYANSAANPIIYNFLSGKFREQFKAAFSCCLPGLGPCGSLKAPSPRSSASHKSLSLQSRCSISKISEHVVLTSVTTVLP

[15] = target: T3, Orexin/Hypocretin receptor type 1; test: Fluorescence-based cell-based high throughput dose response assay for antagonists of the orexin 1 receptor (OX1R; HCRTR1). [Related pubchem assays (depositor defined):AID434989, AID435008, AID463079, AID485270, AID492963, AID492964, AID492965, AID493232, AID504717, AID504718]; assay type: functional
[16] = target: 26S proteasome non-ATPase regulatory subunit 14 (Homo sapiens, UniProt O00487); test: inhibition of proteasome subunit RPN11 – biochemical, fluorescence polarization, uHTS hits, confirmation (AID 602368); assay type: functional
26S proteasome non-ATPase regulatory subunit 14, sequence (O00487 whole entry): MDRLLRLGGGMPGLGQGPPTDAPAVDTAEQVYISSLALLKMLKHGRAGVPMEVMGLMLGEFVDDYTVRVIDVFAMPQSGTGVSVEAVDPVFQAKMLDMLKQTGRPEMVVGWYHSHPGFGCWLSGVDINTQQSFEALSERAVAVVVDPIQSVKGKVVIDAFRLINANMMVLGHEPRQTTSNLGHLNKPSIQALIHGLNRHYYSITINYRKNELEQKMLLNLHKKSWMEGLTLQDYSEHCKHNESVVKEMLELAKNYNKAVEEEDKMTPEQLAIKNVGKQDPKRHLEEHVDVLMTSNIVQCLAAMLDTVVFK

[17] = target: 72 kDa type IV collagenase (Homo sapiens, UniProt P08253); test: Dose Response validation of uHTS RPN11 inhibitor hits using a MMP-2 Fluorescence assay.; assay type: functional
72 kDa type IV collagenase, sequence (P08253 whole entry): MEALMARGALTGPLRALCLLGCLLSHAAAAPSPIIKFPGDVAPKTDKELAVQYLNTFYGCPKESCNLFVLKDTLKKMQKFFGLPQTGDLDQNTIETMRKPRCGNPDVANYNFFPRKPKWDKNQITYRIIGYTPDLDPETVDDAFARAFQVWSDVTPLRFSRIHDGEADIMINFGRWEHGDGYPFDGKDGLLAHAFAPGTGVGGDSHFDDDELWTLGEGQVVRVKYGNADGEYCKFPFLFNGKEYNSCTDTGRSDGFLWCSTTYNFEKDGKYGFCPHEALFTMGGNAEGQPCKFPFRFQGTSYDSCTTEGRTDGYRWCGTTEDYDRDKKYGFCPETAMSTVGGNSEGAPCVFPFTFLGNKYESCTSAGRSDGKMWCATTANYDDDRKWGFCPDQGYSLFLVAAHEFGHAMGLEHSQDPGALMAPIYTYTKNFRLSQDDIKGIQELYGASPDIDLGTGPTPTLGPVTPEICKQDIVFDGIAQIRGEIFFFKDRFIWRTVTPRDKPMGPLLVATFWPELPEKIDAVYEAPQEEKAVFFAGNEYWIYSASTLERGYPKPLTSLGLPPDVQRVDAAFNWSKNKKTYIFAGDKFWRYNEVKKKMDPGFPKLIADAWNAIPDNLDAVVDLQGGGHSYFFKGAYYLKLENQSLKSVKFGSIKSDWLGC

Prothrombin = Prothrombin (Bos taurus, UniProt P00735); test: thrombin inhibition, dose response, biochemical, fluorescence polarization, uHTS hits (AID 602369); assay type: functional
[18] = microbe, parasite or virus in culture; assay type: functional; settings: Mycobacterium tuberculosis
CHO = test: cytotoxicity in TLR9-MyD88 CHO cells, dose response, cytotoxicity control for TLR9-MyD88 binding inhibitor project, cell-based, luminescence (AID 588339); assay type: functional, hamster; settings: Cricetulus griseus;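 further: CHO cells stably coexpressing TLR9 and MyD88 fusions from primary screen; compound exposure lasted 48 hours before viability readout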
Beta Lactamase = Beta Lactamase (Pseudomonas aeruginosa, UniProt Q932Y6); test: beta-lactamase reporter inhibitor potency, dose response, artefact control for TLR9-MyD88 binding inhibitor project, BLA reporter cells, FRET fluorescence (AID 588341); assay type: cell-based;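 further: cell based assay in CHO-K1 cells stably expressing beta-lactamase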
Beta Lactamase, sequence (Q932Y6 whole entry): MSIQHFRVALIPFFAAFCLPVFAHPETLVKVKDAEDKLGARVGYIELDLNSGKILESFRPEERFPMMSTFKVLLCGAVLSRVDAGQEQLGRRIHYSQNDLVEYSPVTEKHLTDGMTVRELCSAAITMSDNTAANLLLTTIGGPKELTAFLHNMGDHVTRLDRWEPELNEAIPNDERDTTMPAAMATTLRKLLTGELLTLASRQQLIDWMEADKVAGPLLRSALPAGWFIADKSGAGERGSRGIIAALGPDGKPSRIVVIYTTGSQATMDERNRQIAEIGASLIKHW

[19] = Shn3 3'UTR reporter inhibitors, dose response, cell-based, Clone20 osteoblasts, firefly luciferase, cherry-picked (AID 624132); assay type: functional;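 further: firefly luciferase luminescence from reporter carrying the Shn3 3'UTR in osteoblasts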
[20] = HepG2 cell cytotoxicity, dose response, cytotoxicity control for Shn3 inhibitor project, CellTiter-Glo, cherry-picked (AID 624134); assay type: functional, cell-based
[21] = control 3'UTR Renilla luciferase suppression, dose response, counter-screen for Shn3 inhibitor project, cell-based, Clone20-Shn3RL, cherry-picked (AID 624133); assay type: functional
Vero = test: cells; assay type: functional; settings: Chlorocebus sabaeus
Cytochrome P450 2D6 = Cytochrome P450 2D6 (Homo sapiens, UniProt P10635);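 further: CYP2D6 member of a cytochrome P450 panel assay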
Cytochrome P450 2D6, sequence (P10635 whole entry): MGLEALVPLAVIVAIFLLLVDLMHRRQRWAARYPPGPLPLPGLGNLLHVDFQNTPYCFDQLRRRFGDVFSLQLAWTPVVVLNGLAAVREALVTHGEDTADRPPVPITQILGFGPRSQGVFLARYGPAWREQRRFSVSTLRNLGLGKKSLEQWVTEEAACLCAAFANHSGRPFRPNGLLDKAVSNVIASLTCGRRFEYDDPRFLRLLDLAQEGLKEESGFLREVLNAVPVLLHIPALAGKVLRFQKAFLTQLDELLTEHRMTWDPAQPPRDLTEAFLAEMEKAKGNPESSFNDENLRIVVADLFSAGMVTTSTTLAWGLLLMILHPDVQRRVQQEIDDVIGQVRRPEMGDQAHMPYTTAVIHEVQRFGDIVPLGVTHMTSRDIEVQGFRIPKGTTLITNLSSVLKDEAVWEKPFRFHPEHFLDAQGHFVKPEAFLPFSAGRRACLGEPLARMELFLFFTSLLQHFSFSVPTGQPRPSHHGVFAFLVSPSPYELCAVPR

Cytochrome P450 1A2 = target: T4, Cytochrome P450 1A2 (Homo sapiens, UniProt P05177);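 further: PubChem cytochrome P450 panel assay, CYP1A2 panel member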
T4 sequence (P05177 whole entry): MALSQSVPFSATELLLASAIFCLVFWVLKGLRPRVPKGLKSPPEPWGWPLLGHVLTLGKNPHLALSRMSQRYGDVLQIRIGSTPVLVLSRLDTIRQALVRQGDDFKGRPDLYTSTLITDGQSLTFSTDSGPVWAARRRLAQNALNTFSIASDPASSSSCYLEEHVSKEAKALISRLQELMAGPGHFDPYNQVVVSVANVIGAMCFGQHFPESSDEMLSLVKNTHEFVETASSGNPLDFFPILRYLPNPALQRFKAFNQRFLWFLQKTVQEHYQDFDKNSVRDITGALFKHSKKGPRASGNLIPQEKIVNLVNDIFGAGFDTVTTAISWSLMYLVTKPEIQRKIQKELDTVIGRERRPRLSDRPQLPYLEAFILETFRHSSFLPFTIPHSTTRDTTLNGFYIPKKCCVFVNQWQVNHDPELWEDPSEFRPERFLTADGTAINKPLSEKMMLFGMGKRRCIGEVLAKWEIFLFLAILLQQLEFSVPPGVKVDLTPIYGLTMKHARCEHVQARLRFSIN

Cytochrome P450 2C9 = Cytochrome P450 2C9 (Homo sapiens, UniProt P11712)
Cytochrome P450 2C9, sequence (P11712 whole entry): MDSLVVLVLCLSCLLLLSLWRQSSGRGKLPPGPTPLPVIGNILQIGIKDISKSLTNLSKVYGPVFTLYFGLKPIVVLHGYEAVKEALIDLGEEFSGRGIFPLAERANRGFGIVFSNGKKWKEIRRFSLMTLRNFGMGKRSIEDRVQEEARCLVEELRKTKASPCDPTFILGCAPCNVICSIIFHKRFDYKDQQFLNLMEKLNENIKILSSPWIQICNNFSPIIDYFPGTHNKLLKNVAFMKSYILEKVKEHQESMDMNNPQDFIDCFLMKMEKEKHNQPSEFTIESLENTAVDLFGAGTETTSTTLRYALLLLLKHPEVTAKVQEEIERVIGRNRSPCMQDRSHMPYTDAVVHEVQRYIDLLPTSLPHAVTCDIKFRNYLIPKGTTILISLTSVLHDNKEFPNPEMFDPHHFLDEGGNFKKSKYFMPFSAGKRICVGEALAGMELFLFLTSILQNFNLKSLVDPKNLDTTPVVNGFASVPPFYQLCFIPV

[22] = Luminescence Cell-Based Dose Retest to Confirm Inhibitors of Cancer Stem Cells. [Related pubchem assays (depositor defined):AID2717, AID2721]; assay type: functional; settings: Homo sapiens
[23] = target: T5, Tyrosine-protein phosphatase non-receptor type 7 (Homo sapiens, UniProt P35236); test: redox-dependent HePTP inhibition, mechanism study, biochemical, fluorescence (AID 2068); assay type: functional
T5 sequence (P35236 whole entry): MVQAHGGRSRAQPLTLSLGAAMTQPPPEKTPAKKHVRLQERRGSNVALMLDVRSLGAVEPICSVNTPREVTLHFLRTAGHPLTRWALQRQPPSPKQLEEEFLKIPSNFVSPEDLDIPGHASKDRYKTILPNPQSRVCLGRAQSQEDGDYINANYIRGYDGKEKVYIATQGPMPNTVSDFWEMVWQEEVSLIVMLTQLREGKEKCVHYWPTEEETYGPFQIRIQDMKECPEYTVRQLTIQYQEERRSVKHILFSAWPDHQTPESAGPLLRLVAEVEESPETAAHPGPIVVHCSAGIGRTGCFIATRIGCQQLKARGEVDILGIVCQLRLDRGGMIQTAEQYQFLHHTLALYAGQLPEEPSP

Caspase-6 = target: T6, Caspase-6 (Homo sapiens, UniProt P55212); test: human caspase-6 inhibitors, dose response, biochemical, VEID-R110 fluorescence, cherry-pick (AID 720632)
T6 sequence (P55212 whole entry): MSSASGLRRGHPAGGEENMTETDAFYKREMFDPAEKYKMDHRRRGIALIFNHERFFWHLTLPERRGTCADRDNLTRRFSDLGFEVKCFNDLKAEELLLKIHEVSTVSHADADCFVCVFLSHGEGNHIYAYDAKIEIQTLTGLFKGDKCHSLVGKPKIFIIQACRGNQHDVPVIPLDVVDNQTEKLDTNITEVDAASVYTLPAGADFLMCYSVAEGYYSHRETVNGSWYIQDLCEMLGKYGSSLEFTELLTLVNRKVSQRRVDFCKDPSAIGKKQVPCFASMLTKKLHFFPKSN

T1 sequence (P98170 whole entry): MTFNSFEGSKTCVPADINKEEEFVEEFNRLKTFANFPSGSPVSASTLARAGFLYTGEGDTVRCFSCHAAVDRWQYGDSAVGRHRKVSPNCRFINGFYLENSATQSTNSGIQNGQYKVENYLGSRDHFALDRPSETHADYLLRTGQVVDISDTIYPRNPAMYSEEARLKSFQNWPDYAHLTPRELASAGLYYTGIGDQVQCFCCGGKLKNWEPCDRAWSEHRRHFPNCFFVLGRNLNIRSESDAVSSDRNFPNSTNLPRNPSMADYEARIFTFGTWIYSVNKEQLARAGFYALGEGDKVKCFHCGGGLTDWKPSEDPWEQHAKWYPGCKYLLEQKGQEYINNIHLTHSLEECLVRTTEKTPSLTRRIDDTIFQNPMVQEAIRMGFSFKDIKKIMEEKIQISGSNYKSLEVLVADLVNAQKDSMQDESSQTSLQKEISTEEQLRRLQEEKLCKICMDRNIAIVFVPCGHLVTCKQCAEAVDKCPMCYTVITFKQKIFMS

O=C(Nc1ccc(F)cc1)c1ccccc1CC[N+](=O)[O-]
IC50 [1]: > 100 µM (inactive)
IC50 [2]: > 100 µM (not active)

CC1CC(N(C(=O)c2ccco2)c2ccccc2)c2ccccc2N1C(=O)c1ccco1 (centres undefined)
IC50 [3]: 5.52 µM (active)

O=C1CSC(c2ccccc2Br)N1c1ccc(Cl)cn1 (centres undefined)
IC50 [3]: 4.58 µM (active)

O=C(Nc1ccc(Cl)cc1)N(Cc1cccnc1)Cc1ccco1
IC50 [1]: > 100 µM (inactive)
IC50 [2]: > 100 µM (not active)
EC50 [4]: 1.1 µM (active)
EC50 [5]: > 30 µM (not active)

COCCCN(C(=S)NC(=O)C12CC3CC(CC(C3)C1)C2)c1c(N)n(Cc2ccccc2)c(=O)[nH]c1=O
AC50 [6]: 1.97 µM (active)
AC50 [7]: 2.64 µM (active)
AC50 [8]: 1.92 µM (active)
AC50 [9]: 4.29 µM (active)
EC50 (HEK293 [10]): > 59.7 µM (inactive)
EC50 (HEK293 [11]): > 59.7 µM (inactive)

CCOC(=O)c1c(CSC(=N)N)n(C)c2cc(Br)c(OC(C)=O)cc12
IC50 [3]: 1.22 µM (active)

O=C(C1=C(O)C(=O)N(CCCn2ccnc2)C1c1cccc(Br)c1)c1ccco1 (centres undefined)
IC50 [12]: 155 µM (inactive)

O=C(NCCN1C(=O)S/C(=C\c2ccccc2)C1=O)c1cc(S(=O)(=O)N2CCOCC2)c(Cl)cc1Cl
IC50 (CHO-K1): > 66.2 µM (inactive)
IC50 [13]: 21.3 µM (inactive)
IC50 [14]: 20.3 µM (inactive)
IC50 [15]: 10.5 µM (inactive)

NS(=O)(=O)c1ccc(N/C=C\C(=O)c2ccc3ccccc3c2)cc1
IC50 [16]: 28.6 µM (active)
IC50 [17]: > 100 µM (inactive)
IC50 (Prothrombin): 56.5 µM (active)

C=CCn1c(SCC(=O)NCc2ccco2)nnc1-c1ccc2ccccc2n1
IC50 [1]: > 100 µM (inactive)
IC50 [2]: > 100 µM (not active)

Nc1cc(Cl)c2nonc2c1[N+](=O)[O-]
CC50 [18]: 12 µM (active)
IC50 (CHO): 2.12 µM (active)
IC50 (Beta Lactamase): > 49.7 µM (inactive)
AC50 [19]: 5.37 µM (active)
AC50 [20]: 29.6 µM (active)
AC50 [21]: 1.37 µM (active)
EC50 (HEK293 [10]): > 59.7 µM (inactive)
EC50 (HEK293 [11]): > 59.7 µM (inactive)

CN(C)C=O.CN(C)c1ccc(/C=C/c2nc3ccccc3c(=O)n2-c2ccc(C(=O)O)cc2)cc1
IC50 (CHO): > 49.7 µM (inactive)
IC50 (Beta Lactamase): 9 µM (active)

CC(C)Cc1nnc(NC(=O)Cc2cccs2)s1
IC50 [16]: 20.6 µM (active)
IC50 [17]: > 100 µM (inactive)
IC50 (Prothrombin): 44.7 µM (active)

COc1cc2c(cc1OC)-c1cc(NC3CCCC3)nc(=O)n1CC2
IC50 [1]: > 100 µM (inactive)
IC50 [2]: > 100 µM (not active)

S=C1SCN(Cc2ccccn2)CN1Cc1ccco1
CC50 (Vero): 24 µM (active)
AC50 (Cytochrome P450 2D6): 17.8 µM (inconclusive)
AC50 (Cytochrome P450 1A2): 11.2 µM (inconclusive)
AC50 (Cytochrome P450 2C9): 14.1 µM (inconclusive)

C=CCC[C@@H](Cc1ccc(F)cc1)C(=O)OC[C@@H](Cc1c[nH]c2ccccc12)NC(=O)[C@@H](CC=C)CC(=O)N(CCO)Cc1ccccc1
AC50 [22]: 5.96 µM (active)
CC50 (Vero): 15.5 µM (active)

O=C(Nc1ccc(Cl)cc1)Nc1ccc2nc(-c3ccco3)c(-c3ccco3)nc2c1
IC50 [23]: 0.949 µM (active)

Cn1cnc([N+](=O)[O-])c1S(=O)(=O)Nc1ccccc1
IC50 [12]: 52.8 µM (inactive)
AC50 (Caspase-6): 9.66 µM (active)

CC1(Cc2ccc(C(F)(F)F)nc2)C(=O)Nc2cc(-c3ccccc3Cl)ccc21 (centres undefined)
EC50 (HEK293 [10]): > 59.6 µM (inactive)
EC50 (HEK293 [11]): > 59.6 µM (inactive)

Cc1cccc(C)c1-n1c(C)cc(/C=N\Nc2ccc([N+](=O)[O-])cn2)c1C
IC50 (CHO): > 49.8 µM (inactive)
IC50 (Beta Lactamase): 4.04 µM (active)

CCCCNc1c(-c2ccc(-c3ccc(OC)cc3)c(OC)c2)nc2ccccn12
CC50 (Vero): > 25 µM (active)
